# Measured values reported in US20040147006A1, “Peptides that bind to DNA and inhibit DNA replication, and methods of use” (priority 2001, published 2004).
# Entries after “also recorded” stand apart in the source; their conditions may differ. Where two headings read alike, the source gives them in different places.
# Tests used:
# [1] = tested on: 64 bp enhancer control (SEQ ID NO: 29); assay: Peptide band shift (EMSA without T-ag), control oligonucleotide; format: binding; settings: 64 bp enhancer control oligonucleotide
# Procedure: (§1) Electrophoretic mobility shift assays (EMSA). Double stranded oligonucleotides, ^32P labeled at 5′ termini, were prepared using standard procedures (Sambrook, J., et al., 1989, Cold Spring Harbor Laboratory, Cold Spring Harbor, N.Y.; Sreekumar, K. A., et al., 2000, p. 49-67; In, L. Raptis (ed.), Methods in Molecular Biology; SV40 Protocols; Humana Press; Totowa, N.J.). EMSA rections were conducted using conditions for SV40 in vitro replication (Wobbe, C. R., et al., 1985, Proc. Natl. Acad. Sci. USA 82:5710-571 4). The reactions (20 μl) contained 7 mM MgCl2, 0.5 mM DTT, 4 mM AMP-PNP, 40 mM creatine phosphate (pH 7.6), 0.48 μg of creatine phosphate kinase, 5 μg of bovine serum albumin, 0.8 μg of Hae III-digested pBR322 ([…]; used as a nonspecific competitor), about 25 fmol of double stranded oligonucleotide, T-ag and the indicated amounts of peptide. After a 20-min incubation at 37° C., glutaraldehyde (0.1 % final concentration) was added and the reaction products were further incubated for 5 min. The reactions were stopped by the addition of 5 μl of 6× loading dye II (15% Ficoll, 0.25% bromophenol blue, and 0.25% xylene cyanol; Sambrook, J., et al., 1989, Cold Spring Harbor Laboratory, Cold Spring Harbor, N.Y.) to the reaction mixtures. Samples containing T-ag were applied to 3.5 to 12% gradient polyacrylamide gels and electrophoresed in 0.5% Tris-borate-EDTA (TBE) pH 8.4 for about 1.5 h (10 watts).
# Peptide based band shift reactions were identical to those described above except that T-ag was omitted from the reactions and the final glutaraldehyde concentration was reduced to 0.05 %. Moreover, the samples were loaded on 8% polyacryamide gels and electrophoresed in 0.5% TBE pH 8.4 for about 3h (about 200 volts). The gels were dried on Whatman 3 MM paper, subjected to autoradiography and quantitated using a Molecular Dynamics PhosphorImager (Sunnyvale, Calif.).
# [2] = tested on: double stranded oligonucleotide containing the SV40 core origin (SEQ ID NO: 24); assay: Nitrocellulose filter binding of peptide to DNA
# Procedure: Nitrocellulose filter binding reactions. Assay for the ability of NLS based peptides to bind to DNA were performed using published methods (Sreekumar, K. A., et al., 2000, In, L. Raptis (ed.), Methods in Molecular Biology: SV40 Protocols; Humana Press, Totowa, N.J. p. 49-67). Reactions (20 μl) contained 7 mM MgCl2, 0.5 mM DTT, 4 mM AMP-PNP, 40 mM creatine phosphate (di-Tris salt pH7.7), 0.48 μg of creatine phosphokinase, 0.2 mg of bovine serum albumin per ml, 0.8 μg of Hae III-digested pBR322 DNA, about 25 fmol of a given oligonucleotide (about 10^6 cpm/pmol) and the indicated peptide. After incubation for 20 min at 37° C., the mixtures were filtered under suction through alkali-treated nitrocellulose filters (Millipore type HAWP; pore size, 0.4 μm; stored in 100 mM Tris-HCl, pH7.5). The filters were then washed with 5 ml of 100 mM Tris-HCl, pH 7.5, and were dried and counted in a Beckman LS 3801 scintillation counter.
# [3] = tested on: 64 bp SV40 core origin (SEQ ID NO: 24); assay: Peptide band shift (EMSA without T-ag), core origin; format: binding; settings: for Peptide/DNA complex formation in peptide band shift: SV40 core origin, 13-mer set at 1 mM final concentration (20 nmoles); for DNA binding seen in EMSA without cross-linking: absence of cross-linking with glutaraldehyde
# Procedure: as §1
# […] Moreover, the samples were loaded on 8% polyacryamide gels and electrophoresed in 0.5% TBE pH 8.4 for about 3h (about 200 volts). The gels were dried on Whatman 3 MM paper, subjected to autoradiography and quantitated using a Molecular Dynamics PhosphorImager (Sunnyvale, Calif.).
# [4] = biological target: T1, T-ag oligomerization on 64-bp oligonucleotide containing the SV40 core origin (Simian virus 40, UniProt P03070); format: biochemical; settings: T-ag 6 pmol; for Effect on T-ag oligomerization, mutant set (FIG. 11 Panel B): 64-bp SV40 core origin, peptide concentration not given; for Effect on T-ag oligomerization (hexamer and double hexamer formation): peptide final concentration 1 mM (20 nmoles)
# T1 construct: made in house
# Procedure: as §1
# T-ag helicase ATPase = biological target: T2, T-ag helicase ATPase (Simian virus 40, UniProt P03070); format: biochemical, SV40; settings: duplicate lanes, FIG. 13
# T2 construct: made in house
# Procedure: A method for measuring ATP hydrolysis involves incubating T-ag with a ^32P-labeled ATP, cross-linking with gluteraldehyde, removing unincorporated nucleotides by passing the reaction products over a Bio-Spin P-30 column, drying the eluate in a Speedvac, resuspending the samples in formic acid, and performing thin layer chromatography on PEI (polyethyleneimine) plates. Using autoradiography, the amount of ATP, ADP and AMP associated with T-ag was determined.
# single-stranded DNA = assay: Binding of NLS peptides to single-stranded DNA
# Procedure: (§2) In the examples that follow, peptides were designed and synthesized to contain NLS regions from a variety of viral and human proteins, in particular, T-ag of SV40, and each of the proteins encoded by the human tumor suppressor p53 gene (SEQ ID NO: 1), the E1 protein encoded by bovine papillomavirus (SEQ ID NO: 2), and a set of control peptides. Binding assays of these peptides were performed with a 64 bp oligonucleotide derived from the SV40 core origin (SEQ ID NO: 24). […] Single stranded DNA was bound poorly by p53 and E1 NLS region peptides.
# double-stranded DNA = assay: Binding of NLS peptides to double-stranded DNA
# Procedure: as §2
# [5] = tested on: SV40 DNA replication in HeLa human cell crude extracts; assay: SV40 in vitro replication reaction; format: biochemical; design: Amount of peptide that completely blocks replication: unit not given here; settings: for Inhibition of SV40 in vitro DNA replication: 30 μl reactions, with T-ag
# Procedure: DNA replication reactions. SV40 in vitro replication reactions were conducted as described by Wobbe et al 1985, Proc. Natl. Acad. Sci. USA 82:5710-5714 (see also, Bullock, P. A., et al., 1998, p. 223-243. In S. Cotterill (ed.), Eukaryotic DNA Replication; A practical Approach, Oxford University Press, Oxford). Reaction mixtures (30 μl) contained 7 mM MgCl2, 0.5 mM DTT, 4 mM ATP, 40 mM creatine phosphate (di-Tris salt pH7.7), 1.4 μg of creatine phosphokinase, 12.5 μg/ml pSV01ΔEP, dATP, dGTP, and dTTP (100 μM each), CTP, GTP, and UTP (200 μM each), [α-^32p] dCTP (20 μM, about 5 cpm/fmol) and the indicated peptides.
# T1 sequence (P03070 whole entry): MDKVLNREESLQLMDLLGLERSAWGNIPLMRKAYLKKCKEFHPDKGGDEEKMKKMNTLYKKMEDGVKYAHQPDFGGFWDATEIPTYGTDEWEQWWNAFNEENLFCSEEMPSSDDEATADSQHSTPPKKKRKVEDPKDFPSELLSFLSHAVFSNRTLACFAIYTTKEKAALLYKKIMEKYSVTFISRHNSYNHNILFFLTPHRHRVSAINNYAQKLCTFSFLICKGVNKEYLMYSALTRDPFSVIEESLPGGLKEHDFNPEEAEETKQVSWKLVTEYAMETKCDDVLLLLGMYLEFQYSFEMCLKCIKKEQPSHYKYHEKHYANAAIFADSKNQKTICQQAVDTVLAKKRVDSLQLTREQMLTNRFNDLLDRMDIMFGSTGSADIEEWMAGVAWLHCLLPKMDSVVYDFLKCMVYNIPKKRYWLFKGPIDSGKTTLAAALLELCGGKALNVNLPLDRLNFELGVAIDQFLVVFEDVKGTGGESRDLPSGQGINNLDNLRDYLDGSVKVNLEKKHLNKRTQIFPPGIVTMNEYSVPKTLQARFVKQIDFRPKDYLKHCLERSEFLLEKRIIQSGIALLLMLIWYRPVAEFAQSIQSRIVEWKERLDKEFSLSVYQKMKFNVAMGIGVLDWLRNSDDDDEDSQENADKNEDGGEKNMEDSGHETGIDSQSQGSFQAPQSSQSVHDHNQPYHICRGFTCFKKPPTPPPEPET
# T2 sequence (P03070 whole entry): as above
sequence,measurement,setting,value
"ADSQHSTPPKKKR (Virus; Host Macaca mulatta; DOMAIN (1)..(13) Domain of SV40 T-Antigen Protein (118)...(130)) [peptide 213, 13-mer of SV40 T-ag centered on Thr124]",Peptide/DNA complex formation in peptide band shift,[1],bound to the 64 bp enhancer control
same,Peptide/DNA complex formation in peptide band shift,[1]; listed as peptide T-213,able to bind to the 64-bp enhancer control
same,Binding to DNA in filter binding assay,[2]; high peptide concentrations (1 mM and 2 mM),saturation of binding was observed
same,Binding to DNA in filter binding assay,[2]; peptide 0.5 mM,bound relatively poorly
same,Binding to DNA in filter binding assay,"[2]; peptide 0.5 mM to 2 mM, replication conditions, pBR322 competitor",binds to DNA
same,Binding to DNA in filter binding assay,"[2]; peptide 0.5 mM to 2 mM, replication conditions, pBR322 competitor, listed as peptide T-213",able to bind to DNA
same,Peptide/DNA complex formation in peptide band shift,[3],found to bind to DNA
same,Peptide/DNA complex formation in peptide band shift,[3]; listed as T-213,Mobility shifts are seen
same,Peptide/DNA complex formation in peptide band shift,[3]; listed as peptide T-213,binds to DNA
same,"Effect on T-ag oligomerization, mutant set (FIG. 11 Panel B)",[4]; listed as SEQ ID NO: 3,complete inhibition of oligomerization
same,"Effect on T-ag oligomerization, mutant set (FIG. 11 Panel B)",[4]; listed as peptide T-213,inhibited T-ag oligomerization
same,Effect on T-ag oligomerization,[4]; peptide final concentration 0.5 mM,inhibited T-ag assembly events
same,Effect on T-ag oligomerization (hexamer and double hexamer formation),[4],inhibited both hexamer and double hexamer formation
same,Effect on T-ag oligomerization (hexamer and double hexamer formation),[4]; listed as peptide T-213,formation of the standard hexamer and double hexamer protein was inhibited
same,Effect on ATPase of T-ag,T-ag helicase ATPase,inhibited the ATPase of T-ag
"TKRALPNNTSSSPQPKKKPL (DOMAIN (1)..(20) Domain of p53 (304)...(323); listed as Homo sapiens) [SEQ ID NO: 1, peptide from the NLS/Cdk region of human p53]",Binding to single-stranded DNA,single-stranded DNA,bound poorly; also recorded: not single-stranded DNA
same,Binding to double-stranded DNA,double-stranded DNA,bind to double-stranded DNA; also recorded: binds to double-stranded
KRKVLGSSQNSSGSEASETPVKRRK [BP-E125],Concentration of peptide that completely blocked viral DNA replication,[5],about 600 μM
same,Inhibition of SV40 in vitro DNA replication,[5],at all concentrations tested inhibited; also recorded: inhibits in vitro DNA replication reactions
same,Inhibition of SV40 in vitro DNA replication,[5]; listed as SEQ ID NO: 2,best inhibitor of DNA replication
same,Amount of peptide that completely blocks replication,[5]; added to a reaction,20
same,Binding to single-stranded DNA,single-stranded DNA,bound poorly
same,Binding to double-stranded DNA,double-stranded DNA,bind to double-stranded DNA
same,"Binding to DNA in filter binding assay, E1 peptides",[2]; low peptide concentration 0.25 mM,better DNA binder than peptide 217
same,"Binding to DNA in filter binding assay, E1 peptides","[2]; low peptide concentration 0.25 mM, listed as peptide E1-P225",binds at a relatively low concentration of peptide
same,"Binding to DNA in filter binding assay, E1 peptides",[2]; peptide 0.25 mM and 0.5 mM,binds to DNA at a lower concentration than does peptide 217
same,"Binding to DNA in filter binding assay, E1 peptides","[2]; peptide 0.25 mM and 0.5 mM, listed as BP-E1",bound to DNA
same,"Binding to DNA in filter binding assay, E1 peptides","[2]; peptide 0.25 mM and 0.5 mM, listed as SEQ ID NO: 2",best DNA binder
same,"Binding to DNA in filter binding assay, E1 peptides","[2]; peptide 0.25 mM and 0.5 mM, listed as peptide E1-P225",found to bind to DNA
same,DNA binding seen in EMSA without cross-linking,[3]; listed as SEQ ID NO: 2,does not require cross-linking with glutaraldehyde
same,DNA binding seen in EMSA without cross-linking,[3]; listed as peptide E1-225,successful EMSA experiments
same,Effect on ATPase of T-ag,T-ag helicase ATPase,blocked the degradation of ATP by T-ag
